Source: paper PMC4536990, “Efficacy of the antimicrobial peptide TP4 against Helicobacter pylori infection: in vitro membrane perturbation via micellization and in vivo suppression of host immune responses in a mouse model” (Oncotarget, 2015)
Where a SMILES comes first, the peptide text is derived from it.

Experiments:
[1] = system: human and mouse cell lines; conditions: cited from earlier work
Text: (§1) A more complete understanding of how these short amphipathic cationic AMPs bring about bacterial cell death and host immunomodulation is needed for further optimization and development for clinical applications.

[2] = cited from earlier work
Text: as §1

[3] = system: New Zealand white rabbits; assay: Eye irritation test in rabbits (OECD 405); type: in vivo; conditions: for Abnormality iris grade / Chemosis grade / Conjunctivae Redness grade / Corneal opacity grade: OECD 405 grading
Experimental: (§2) Figure 11 TP4 toxicity safety evaluations in New Zealand albino rabbits and C3H/HeN mice (A) Eye irritation test: Ocular appearances of controls, and rabbits treated with TP4 or SDS for 7 days. […] (B) Dermal toxicity: appearances of the skin of mice treated with TP4 at 48 hr post-exposure.
(§3) Oral toxicity: Acute oral toxicity was assessed in C3H/HeN mice with 6 animals per group, by single oral administration of TP4 (125 mg/kg). After dose administration, the animals were kept under observation for a minimum of 48 hr. The mortality rate and clinical signs were recorded. Sub-acute oral toxicity was assessed by administering 600 μg dose/day for 14 days. During dose administration, the animals were observed every day for any signs of toxicity. After the treatment period, the animals were kept under observation for 14 days. The morbidity, mortality, and other clinical signs were recorded and assessed. Dermal Toxicity was assessed by topical application of TP4 at 10 times the effective dose to skin at the dorsal side of mice. After administration, the animals were kept under observation for a minimum of 48 h. Clinical signs were noted if the animals were in the morbid stage or presented with any abnormalities. Eye irritation test in New Zealand white rabbits: Healthy young adult rabbits were used in the experiment. Eyes were treated with TP4, PBS (vehicle control), or 0.1% SDS (positive control). A repeated dose of 1 mg/kg was administered every day for 7 days. During the treatment period, the eyes were examined on days 1, 3, 5, and 7, and allowed to recover until day 14. Clinical signs were recorded during the test period, and grades were assigned for ocular reactions observed during each examination. All procedures, care, and handling of rabbits were approved by the laboratory animal ethics committee of National Taiwan Ocean University.

[4] = system: C3H/HeN mice; assay: Dermal toxicity; type: in vivo
Experimental: as §2, §3

[5] = system: H. pylori; type: cell-based, Helicobacter pylori; conditions: 24 h
Experimental: Frozen cultures were streaked onto BHI agar with 10% sheep blood, and incubated for 24 hr under microaerophilic conditions. H. pylori cells undergoing exponential growth were suspended in sterile phosphate-buffered saline (PBS), and adjusted to 0.05 OD using BHI broth; the resulting inoculum was dispensed onto a microtitre plate. Peptide TP4 was prepared at various concentrations (0.04 to 50 μg mL^−1) using PBS. Antibiotic resistant clinical isolate CI-HC-028 and three reference strains were used for susceptibility testing. All plates were incubated under microaerophilic conditions at 37°C overnight. The MIC was defined as the lowest concentration of the drug at which there was no visible growth. For quality control and comparative analyses, we examined the susceptibility of all four H. pylori strains to the antibiotics amoxicillin, clarithromycin, and metronidazole (Sigma Chemical Co., St. Louis, MO).

[6] = system: C3H/HeN mice; assay: Acute oral toxicity; type: in vivo; conditions: single oral dose 125 mg/kg, n=6, observed 24 hours
Experimental: as §3, with “After dose administration, the animals were kept under observation for a minimum of 48 hr.” left out, “All procedures, care, and handling of rabbits were approved by the laboratory animal ethics committee of National Taiwan Ocean University.” left out

[7] = system: C3H/HeN mice; assay: Sub-acute oral toxicity; type: in vivo; conditions: three-fold therapeutic dose (600 μg dose/day) orally for 14 days, observed days 1 to 28, n=6
Experimental: Sub-acute oral toxicity: Three-fold therapeutic doses were orally administered to mice for 14 days.
as §3, with “A repeated dose of 1 mg/kg was administered every day for 7 days. During the treatment period, the eyes were examined on days 1, 3, 5, and 7, and allowed to recover until day 14.” left out, “All procedures, care, and handling of rabbits were approved by the laboratory animal ethics committee of National Taiwan Ocean University.” left out

[8] = system: metronidazole- and clarithromycin-resistant H. pylori strains; assay: Synergy of TP4 with antibiotics, in vitro dose-OD fall kinetics; type: cell-based, Helicobacter pylori; conditions: TP4 plus antibiotic
Experimental: (§4) Animals were sacrificed at each passage, and the MIC of TP4, amoxicillin, metronidazole, and clarithromycin were recorded for 10 serial passages. Passage points in the curves are means ± SEM. (MICs: standard MIC value; MICp: passage-induced MIC). (B) In vitro dose-OD fall kinetics were examined for TP4 alone and in combination with amoxicillin, metronidazole, or clarithromycin. […] The data shown are means ± SEM of two independent experiments
Combination therapy often enhances antibiotic efficacy and mitigates the frequency at which drug resistance emerges. To determine the suitability of TP4 for combination therapy, we examined in vitro dose-OD fall kinetics of TP4 in combination with AMOX, CLRN, or METZ antibiotics; these three antibiotics are traditionally used as the first line of defense against H. pylori.

[9] = system: H. pylori CI-HC-028; assay: Time-dependent killing of multidrug resistant clinical isolate; type: cell-based, Helicobacter pylori; conditions: CI-HC-028, at MIC
Experimental: Control peptide and H. pylori alone were used as controls. The cultures were monitored for 24 h, and aliquots were taken at 1, 3, 6, 12, and 24 h for bacterial enumeration. The data are means ± SEM. […] Approximately, 1 × 10^5 cells were incubated for 1 h, and then incubated with the MIC of TP4, amoxicillin, metronidazole, or clarithromycin (AMOX, METZ, and CLRN, respectively). The cultures were monitored for 24 h, and aliquots taken at 1, 3, 6, 12, and 24 h to determine surviving c.f.u. The data are means ± SEM
Overnight cultures of H. pylori were scraped and adjusted to OD 0.05, and 1 ml/tube inocula were prepared with BHI broth. Solutions of TP4 or clinical antibiotics were prepared with concentrations corresponding to their respective MIC, and PBS was used as a control. The tubes were incubated without shaking at 37°C under microaerophilic conditions, and sample aliquots were taken at 0, 1, 3, 6, 12, and 24 hr. The samples were serially diluted, and appropriate dilutions were plated in triplicate onto blood agar plates for bacterial counts. The results were expressed as mean log (c.f.u. mL^−1) with standard error.

[10] = system: H. pylori; assay: Induction of drug resistance by sub-inhibitory passaging (in vitro / in vivo passage); type: cell-based, Helicobacter pylori; conditions: sub-inhibitory doses, 10 serial passages
Experimental: as §4
The drug resistance of bacteria to TP4 and clinical antibiotics was determined by in vitro culturing of H. pylori in sub-inhibitory concentrations of TP4 and antibiotics, followed by repeated in vivo passaging. H. pylori was administered to C3H/HeN mice and allowed to colonize the gut; subsequently pure colonies of H. pylori were isolated on EYE selective media. This step was repeated for 10 passages. During each passage, the MICs of TP4 and the conventional antibiotics were determined. All procedures, care, and handling of mice were approved by the laboratory animal ethics committee of National Taiwan Ocean University.

[11] = system: H. pylori outer membrane; assay: NPN uptake membrane perturbation assay; type: cell-based, Helicobacter pylori; conditions: 6 h incubation, 22μg mL−1 NPN
Experimental: Figure 3 TP4 induces membrane permeation of H. pylori TP4 rapidly permeabilizes the H. pylori outer membrane in a dose-dependent manner. Membrane permeabilization was examined by measuring fluorescence due to uptake of 1-N-phenyl-naphthylamine (NPN). Approximately 5 × 10^6 H. pylori (Hp) cells were cultured in the presence of TP4 or amoxicillin for 6 h. Bacterial cells alone, or cells incubated with NPN and control peptide, were used as negative controls. NPN fluorescence intensity was recorded as a correlate of membrane permeation. (B) Zeta-potential (ζ) of H. pylori in the presence/absence of TP4. Striped bars: H. pylori grown in blood agar plates; white bar: liquid culture. The data shown are means ± SEM of two independent experiments
The NPN membrane permeation assay was performed as described previously. Briefly, a starter culture of H. pylori was grown overnight to 0.05 OD. The adjusted culture was aliquoted into different tubes with or without TP4/amoxicillin, and incubated at 37°C for 360 minutes under microaerophilic conditions. […] NPN fluorescence intensity was recorded using a Synergy HT (BioTek, U.S.A) fluorescence ELISA reader, and correlated to membrane potential and permeation. Experiments were performed in triplicate, and the results are expressed as means with standard error.

[12] = system: H. pylori; assay: Transmission electron microscopy of H. pylori morphology; type: cell-based, Helicobacter pylori; conditions: 1x MIC, 2 hr
Text: Figure 4 Electron micrographs reveal that TP4 causes membrane disruption in H. pylori via micellization Approximately 6 × 10^7 H. pylori cells were exposed to PBS (A, D), 1x MIC amoxicillin (B, E), or 1x MIC TP4 peptide (C, F) for 2 hr. Next, thin sections were examined under a transmission electron microscope (TEM) at low (1,100X; A-C) or high (5,500X; D-F) magnification. […] (E) Amoxicillin-treated cells retained intact membranes, but the periplasmic space was swollen in some locations.
Transmission electron microscopy (TEM) was used to examine the mechanism of TP4 action on H. pylori, overall cell morphology, TP4 translocation into H. pylori, and binding of TP4 to internal constituents. H. pylori overnight cultures from BHI-blood agar plates were collected, and 0.1 OD inocula were incubated with TP4, Amoxicillin, and/or PBS (PBS only: negative control). Following drug exposure, H. pylori cells were collected and successively washed twice in PBS by centrifugation and resuspension. The cells were then fixed and processed for TEM using previously described methods. […] Each grid was examined under the same settings. Images were recorded with a 4MP SPOT Insight charge-coupled-device (CCD) camera.

Which results are given for CC[C@H](C)[C@H](NC(=O)[C@H](C)NC(=O)[C@H](CCCCN)NC(=O)CNC(=O)[C@H](C)NC(=O)[C@H](CO)NC(=O)[C@H](Cc1ccccc1)NC(=O)[C@H](CC(C)C)NC(=O)CNC(=O)CNC(=O)[C@@H](NC(=O)[C@@H](NC(=O)[C@H](Cc1c[nH]cn1)NC(=O)[C@H](Cc1c[nH]cn1)NC(=O)[C@@H](NC(=O)[C@@H](N)Cc1ccccc1)[C@@H](C)CC)[C@@H](C)CC)[C@@H](C)CC)C(=O)N[C@@H](Cc1c[nH]cn1)C(=O)N[C@@H](CCCNC(=N)N)C(=O)N[C@@H](CC(C)C)C(=O)N[C@H](C(=O)N[C@@H](CCCNC(=N)N)C(=O)N[C@@H](CCCNC(=N)N)C(=O)N[C@@H](CCCNC(=N)N)C(=O)N[C@@H](CCCNC(=N)N)C(=O)N[C@@H](CCCNC(=N)N)C(N)=O)[C@@H](C)CC [TP4] (H-FIHHIIGGLFSAGKAIHRLIRRRRR-NH2)?
toxicity against cell lines [1]: low toxicity against human and mouse cell lines; hemolytic activity [2]: low hemolytic activity; Abnormality iris grade ([3]; Day 1): 0; Chemosis grade ([3]; Day 1): 0; Conjunctivae Redness grade ([3]; Day 1): 0; Corneal opacity grade ([3]; Day 1, rabbit eye, daily for 7 days (TP4 1 mg/kg; SDS 0.1%)): 0; Abnormality iris grade ([3]; Day 3): 0; Chemosis grade ([3]; Day 3): 0.1; Conjunctivae Redness grade ([3]; Day 3): 0; Corneal opacity grade ([3]; Day 3): 0; Abnormality iris grade ([3]; Day 5): 0; Chemosis grade ([3]; Day 5): 0.1; Conjunctivae Redness grade ([3]; Day 5): 0.5; Corneal opacity grade ([3]; Day 5): 0.1; Abnormality iris grade ([3]; Day 7): 0; Chemosis grade ([3]; Day 7): 0.1; Conjunctivae Redness grade ([3]; Day 7): 0; Corneal opacity grade ([3]; Day 7): 0.3; Abnormality iris grade ([3]; Recovery, Day 14): 0; Chemosis grade ([3]; Recovery, Day 14): 0; Conjunctivae Redness grade ([3]; Recovery, Day 14): 0; Corneal opacity grade ([3]; Recovery, Day 14): 0; ocular appearance ([3]; rabbits treated for 7 days, observed daily): no ocular lesions were detected; skin appearance, lesions ([4]; 48 hr post-exposure, after residue removal, 125 mg/kg TP4 or 20% SDS, n=12 per group): No obvious lesions; dermal toxicity, mortality or damaging effects ([4]; topical, 10 times the effective dose, 14-day observation): did not result in mortality or damaging effects; MIC [5]: 1.5 to 3 µg/mL; acute oral toxicity, clinical signs and vital organs [6]: did not exhibit any abnormal clinical signs; sub-acute oral toxicity, clinical signs [7]: did not induce clinical complications in mice

What does the source list for CC1(C)S[C@@H]2[C@H](NC(=O)[C@H](N)c3ccc(O)cc3)C(=O)N2[C@H]1C(=O)O [amoxicillin]?
reduction of the MIC of the antibiotic in combination with TP4 [8]: one-fourth; killing within 24 hr [9]: 90%; drug resistance index MICp/MICs [10]: increased slightly after passage 6, and remained constant thereafter; NPN fluorescence intensity (membrane permeabilization) [11]: slight increase in fluorescence intensity at higher doses; membrane morphology by TEM [12]: loose outer membranes
